Experimental findings from patent publication US20260001875A1, “AMINOPYRIMIDINYL DERIVATIVES FOR THE TREATMENT OF PARKINSON'S DISEASE” (UNIVERSITY OF DUNDEE, priority 2022, published 2026) are described below.

For assay [1], the system named is Rab10 pThr73. Kind of assay: Rab10 Thr73 dephosphorylation (immunoblot) in WT MEFs. The class given is cell-based, mouse. To be noted: Mus musculus, read-out: pRab10 inhibited in WT MEFs. Summed up:
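Wild-type mouse embryonic fibroblasts in 6-well plates were treated with LRRK2 PROTACs, with two biological replicates per condition. Cells were washed in PBS and lysed on ice in buffer containing phosphatase and protease inhibitors plus 1% Triton X-100, then clarified at 15,000 g. Rab10 Thr73 phosphorylation was measured by quantitative immunoblotting of 15 to 20 μg protein on 4-12% Bis-Tris gels.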

The subject of assay [2] is Rab10 pThr73. In words: Rab10 Thr73 dephosphorylation (immunoblot) in LRRK2^G2019S MEFs. The note with it: Mus musculus, read-out: pRab10 inhibited in LRRK2^G2019S MEFs. It is filed as cell-based, mouse. For orientation: Immunoblotting shows a protein as a band on a membrane.
For assay [3], the system named is Rab10 pThr73. Described as above. It is filed as cell-based. The note with it: Mus musculus, read-out: pRab10 inhibited in LRRK2^G2019S MEFs.

Regarding `CNc1nc(Nc2ccc(C(=O)N3CCN(Cc4ccc(CSC(C)(C)[C@H](NC(=O)C5(F)CC5)C(=O)N5C[C@H](O)C[C@H]5C(=O)NCc5ccc(-c6scnc6C)c(F)c5)cc4)CC3)cc2OC)ncc1Cl` [XL01121, (2S,4R)-1-((R)-3-((4-((4-(4-((5-chloro-4-(methylamino)pyrimidin-2-yl)amino)-3-methoxybenzoyl)piperazin-1-yl)methyl)benzyl)thio)-2-(1-fluorocyclopropane-1-carboxamido)-3-methylbutanoyl)-N-(3-fluoro-4-(4-methylthiazol-5-yl)benzyl)-4-hydroxypyrrolidine-2-carboxamide], the inhibition at 0.033 µM was 0 to 40% in assay [1] (33 nM/4 h treatment), 0 to 60% in assay [1] (33 nM/24 h treatment), 0 to 70% in assay [3] (33 nM/4 h treatment) and 0 to 90% in assay [3] (33 nM/24 h treatment). Besides, the inhibition at 1 µM in assay [1] (1 μM/4 h treatment) was in the range of 10 to 95%; in assay [1] (1 μM/24 h treatment), 30 to 100%; in assay [2] (1 μM/4 h treatment) it was 20 to 100%; in assay [2] (1 μM/24 h treatment) it was 10 to 100%.
Consider `CNc1nc(Nc2ccc(C(=O)N3CCN(CCCSC(C)(C)[C@H](NC(=O)C4(F)CC4)C(=O)N4C[C@H](O)C[C@H]4C(=O)NCc4ccc(-c5scnc5C)c(F)c4)CC3)cc2OC)ncc1Cl` [XL01122, (2S,4R)-1-((R)-3-((3-(4-(4-((5-chloro-4-(methylamino)pyrimidin-2-yl)amino)-3-methoxybenzoyl)piperazin-1-yl)propyl)thio)-2-(1-fluorocyclopropane-1-carboxamido)-3-methylbutanoyl)-N-(3-fluoro-4-(4-methylthiazol-5-yl)benzyl)-4-hydroxypyrrolidine-2-carboxamide], for which the inhibition at 0.033 µM in assay [1] (33 nM/4 h treatment) lay within 0 to 40%; in assay [1] (33 nM/24 h treatment), 0 to 60%; in assay [3] (33 nM/4 h treatment), 0 to 70%; in assay [3] (33 nM/24 h treatment), 0 to 90%. The inhibition at 1 µM in assay [1] (1 μM/4 h treatment) is 10 to 95%; in assay [1] (1 μM/24 h treatment) it was 30 to 100%; in assay [2] (1 μM/4 h treatment), 20 to 100%; in assay [2] (1 μM/24 h treatment), 10 to 100%.
In the case of `CNc1nc(Nc2ccc(C(=O)N3CCN(CCOCCOCCSC(C)(C)[C@H](NC(=O)C4(F)CC4)C(=O)N4C[C@H](O)C[C@H]4C(=O)NCc4ccc(-c5scnc5C)c(F)c4)CC3)cc2OC)ncc1Cl` [XL01123, (2S,4R)-1-((R)-3-((2-(2-(2-(4-(4-f((5-chloro-4-(methylamino)pyrimidin-2-yl)amino)-3-methoxybenzoyl)piperazin-1-yl)ethoxyl)ethoxy)ethyl)thio)-2-(1-fluorocyclopropane-1-carboxamido)-3-methylbutanoyl)-N-(3-fluoro-4-(4-methylthiazol-5-yl)benzyl)-4-hydroxypyrrolidine-2-carboxamide], the inhibition at 0.033 µM in assay [1] (33 nM/4 h treatment) was in the range of 0 to 40%; in assay [1] (33 nM/24 h treatment), 0 to 60%; in assay [3] (33 nM/4 h treatment) it was 0 to 70%; in assay [3] (33 nM/24 h treatment), 0 to 90%. The inhibition at 1 µM in assay [1] (1 μM/4 h treatment) was 10 to 95%; in assay [1] (1 μM/24 h treatment), 30 to 100%; in assay [2] (1 μM/4 h treatment) it was 20 to 100%; in assay [2] (1 μM/24 h treatment), 10 to 100%.
With `CNc1nc(Nc2ccc(C(=O)N3CCN(CCOCCSC(C)(C)[C@H](NC(=O)C4(F)CC4)C(=O)N4C[C@H](O)C[C@H]4C(=O)NCc4ccc(-c5scnc5C)cc4)CC3)cc2OC)ncc1Cl` [XL01131, (2S,4R)-1-((R)-3-((2-(2-(4-(4-((5-chloro-4-(methylamino)pyrimidin-2-yl)amino)-3-methoxybenzoyl)piperazin-1-yl)ethoxy)ethyl)thio)-2-(1-fluorocyclopropane-1-carboxamido)-3-methylbutanoyl)-4-hydroxy-N-(4-(4-methylthiazol-5-yl)benzyl)pyrrolidine-2-carboxamide], the inhibition at 0.033 µM in assay [1] (33 nM/4 h treatment) was 0 to 40%; in assay [1] (33 nM/24 h treatment) it was 0 to 60%; in assay [3] (33 nM/4 h treatment), 0 to 70%; in assay [3] (33 nM/24 h treatment), 0 to 90%. Moreover, the inhibition at 1 µM in assay [1] (1 μM/4 h treatment) was in the range of 10 to 95%; in assay [1] (1 μM/24 h treatment), 30 to 100%; in assay [2] (1 μM/4 h treatment) it was 20 to 100%; in assay [2] (1 μM/24 h treatment), 10 to 100%.
Turning to `CNc1nc(Nc2ccc(C(=O)N3CCN(C[C@H](C)SC(C)(C)[C@H](NC(=O)C4(F)CC4)C(=O)N4C[C@H](O)C[C@H]4C(=O)NCc4ccc(-c5scnc5C)cc4)CC3)cc2OC)ncc1Cl` [XL01140, (2S,4R)-1-((R)-3-(((S)-1-(4-(4-((5-chloro-4-(methylamino)pyrimidin-2-yl)amino)-3-methoxybenzoyl)piperazin-1-yl)propan-2-yl)thio)-2-(1-fluorocyclopropane-1-carboxamido)-3-methylbutanoyl)-4-hydroxy-N-(4-(4-methylthiazol-5-yl)benzyl)pyrrolidine-2-carboxamide], the inhibition at 0.033 µM fell in the range of 0 to 40% in assay [1] (33 nM/4 h treatment), 0 to 60% in assay [1] (33 nM/24 h treatment), 0 to 70% in assay [3] (33 nM/4 h treatment) and 0 to 90% in assay [3] (33 nM/24 h treatment). Besides, the inhibition at 1 µM in assay [1] (1 μM/4 h treatment) lay in the range of 10 to 95%; in assay [1] (1 μM/24 h treatment) it was 30 to 100%; in assay [2] (1 μM/4 h treatment) it was 20 to 100%; in assay [2] (1 μM/24 h treatment), 10 to 100%.
With `CNc1nc(Nc2ccc(OCCOCCOCCOCCSC(C)(C)[C@@H](NC(=O)C3(F)CC3)C(=O)N3C[C@H](O)C[C@H]3C(=O)NCc3ccc(-c4scnc4C)cc3)cc2OC)ncc1Cl` [XL01145, (2S,4R)-1-((S)-1-(4-((5-chloro-4-(methylamino)pyrimidin-2-yl)amino)-3-methoxyphenoxy)-14-(1-fluorocyclopropane-1-carboxamido)-13,13-dimethyl-3,6,9-trioxa-12-thiapentadecan-15-oyl)-4-hydroxy-N-(4-(4-methylthiazol-5-yl)benzyl)pyrrolidine-2-carboxamide], the inhibition at 0.033 µM in assay [1] (33 nM/4 h treatment) was in the range of 0 to 40%; in assay [1] (33 nM/24 h treatment) it was 0 to 60%; in assay [3] (33 nM/4 h treatment), 0 to 70%; in assay [3] (33 nM/24 h treatment), 0 to 90%. For the same compound, the inhibition at 1 µM in assay [1] (1 μM/4 h treatment) is 10 to 95%; in assay [1] (1 μM/24 h treatment), 30 to 100%; in assay [2] (1 μM/4 h treatment), 20 to 100%; in assay [2] (1 μM/24 h treatment) it was 10 to 100%.
With `CNc1nc(Nc2ccc(OCCOCCCSC(C)(C)[C@@H](NC(=O)C3(F)CC3)C(=O)N3C[C@H](O)C[C@H]3C(=O)NCc3ccc(-c4scnc4C)cc3)cc2OC)ncc1Cl` [XL01149, (2S,4R)-1-((S)-3-((3-(2-(4-((5-chloro-4-(methylamino)pyrimidin-2-yl)amino)-3-methoxyphenoxy)ethoxy)propyl)thio)-2-(1-fluorocyclopropane-1-carboxamido)-3-methylbutanoyl)-4-hydroxy-N-(4-(4-methylthiazol-5-yl)benzyl)pyrrolidine-2-carboxamide], the inhibition at 0.033 µM in assay [1] (33 nM/4 h treatment) lay in the range of 0 to 40%; in assay [1] (33 nM/24 h treatment), 0 to 60%; in assay [3] (33 nM/4 h treatment), 0 to 70%; in assay [3] (33 nM/24 h treatment) it was 0 to 90%. Besides, the inhibition at 1 µM fell in the range of 10 to 95% in assay [1] (1 μM/4 h treatment), 30 to 100% in assay [1] (1 μM/24 h treatment), 20 to 100% in assay [2] (1 μM/4 h treatment) and 10 to 100% in assay [2] (1 μM/24 h treatment).
As to `CNc1nc(Nc2ccc(OC[C@H]3CC[C@H](CSC(C)(C)C(NC(=O)C4(F)CC4)C(=O)N4C[C@H](O)C[C@H]4C(=O)NCc4ccc(-c5scnc5C)cc4)CC3)cc2OC)ncc1Cl` (stereo partly drawn) [XL01168, (2S,4R)-1-((S)-3-((((1R,4S)-4-((4-((5-chloro-4-(methylamino)pyrimidin-2-yl)amino)-3-methoxyphenoxy)methyl)cyclohexyl)methyl)thio)-2-(1-fluorocyclopropane-1-carboxamido)-3-methylbutanoyl)-4-hydroxy-N-(4-(4-methylthiazol-5-yl)benzyl)pyrrolidine-2-carboxamide], the inhibition at 0.033 µM was in the range of 0 to 40% in assay [1] (33 nM/4 h treatment), 0 to 60% in assay [1] (33 nM/24 h treatment), 0 to 70% in assay [3] (33 nM/4 h treatment) and 0 to 90% in assay [3] (33 nM/24 h treatment). Further, the inhibition at 1 µM in assay [1] (1 μM/4 h treatment) is 10 to 95%; in assay [1] (1 μM/24 h treatment) it was 30 to 100%; in assay [2] (1 μM/4 h treatment), 20 to 100%; in assay [2] (1 μM/24 h treatment) it was 10 to 100%.
For the compound `CNc1nc(Nc2ccc(C(=O)N3C[C@@H](C)N(C[C@H]4CC[C@H](CSC(C)(C)C(NC(=O)C5(F)CC5)C(=O)N5C[C@H](O)C[C@H]5C(=O)NCc5ccc(-c6scnc6C)cc5)CC4)[C@@H](C)C3)cc2OC)ncc1Cl` (some centres unmarked) [XL02031], the inhibition at 0.033 µM lay within 0 to 70% in assay [1] (33 nM/4 h treatment), 0 to 80% in assay [1] (33 nM/24 h treatment), 0 to 90% in assay [3] (33 nM/4 h treatment) and 30 to 90% in assay [3] (33 nM/24 h treatment). Moreover, the inhibition at 1 µM fell in the range of 80 to 100% in assay [1] (1 μM/4 h treatment), 80 to 100% in assay [1] (1 μM/24 h treatment), 10 to 100% in assay [2] (1 μM/4 h treatment) and 80 to 100% in assay [2] (1 μM/24 h treatment).
For the compound `CNc1nc(Nc2ccc(C(=O)N3CCN(C[C@H]4CC[C@@H](CSC(C)(C)[C@H](NC(=O)C5(F)CC5)C(=O)N5C[C@H](O)CC5C(=O)NCc5ccc(-c6scnc6C)cc5F)CC4)CC3)cc2OC)ncc1Cl` (stereo partly drawn) [XL02058, (2S,4R)-1-((R)-3-((((1s,4S)-4-((4-(4-((5-chloro-4-(methylamino)pyrimidin-2-yl)amino)-3-methoxybenzoyl)piperazin-1-yl)methyl)cyclohexyl)methyl)thio)-2-(1-fluorocyclopropane-1-carboxamido)-3-methylbutanoyl)-N-(2-fluoro-4-(4-methylthiazol-5-yl)benzyl)-4-hydroxypyrrolidine-2-carboxamide], the inhibition at 0.033 µM in assay [1] (33 nM/4 h treatment) was in the range of 0 to 70%; in assay [1] (33 nM/24 h treatment) it was 0 to 80%; in assay [3] (33 nM/4 h treatment) it was 0 to 90%; in assay [3] (33 nM/24 h treatment), 30 to 90%. For the same compound, the inhibition at 1 µM lay within 80 to 100% in assay [1] (1 μM/4 h treatment), 80 to 100% in assay [1] (1 μM/24 h treatment), 10 to 100% in assay [2] (1 μM/4 h treatment) and 80 to 100% in assay [2] (1 μM/24 h treatment).
